Patent US20140357512A1, “HISTONE DEACETYLASE (HDAC) BIOMARKERS IN MULTIPLE MYELOMA” (priority 2013, published 2014)

Test system: human myeloma cell line MM.1S
Test: SILAC acetylated-lysine peptide profiling, HDAC inhibitor vs DMSO (light/heavy ratio)
Type: cell-based
Text: An embodiment of the invention comprises utilizing the SILAC method in order to quantitate changes in protein expression between two or more populations of cells. The SILAC method is a technique based on mass spectrometry that detects differences in protein abundance among samples using non-radioactive isotopic labeling. The SILAC method is known in the art, and described in detail in Ong et al., “Stable Isotope Labeling by Amino Acids in Cell Culture, SILAC, as a Simple and Accurate Approach to Expression Proteomics”, Molecular & Cellular Proteomics, vol. 1, pp. 376-386 (2002), which is incorporated herein by reference in its entirety.
Briefly, the SILAC method involves growing two populations of cells in cell culture. The first population of cells is grown in growth media containing normal amino acids (“normal media”). The second population of cells is grown in media lacking a standard essential amino acid (such as lysine), but is then supplemented with a non-radioactive, isotopically labeled form of that essential amino acid (such as lysine labeled with ^13C atoms, rather than normal ^12C atoms), which is called “heavy media”. When the two populations of cells are each growing in the medium, they incorporate the amino acids into all of their proteins. The growth of cells maintained in the heavy media is no different from that in normal media. All peptides containing the heavy amino acids are heavier than their normal counterparts. The cells from each of the two populations of cells are lysed. The lysates from each of the two cell populations are then combined. The combined cell lysates are then analyzed by mass spectrometry. Pairs of chemically identical peptides of different stable isotope composition can be differentiated in a mass spectrometer due to their difference in mass. The ratio of peak intensities in the mass spectrum for such peptide pairs reflects the abundance ratio for the two proteins.
This example describes SILAC studies that were performed to compare the effects of three different HDAC inhibitors (Compound A, Compound B, and tubastatin A) to a control on a human multiple myeloma cell line. The HDAC inhibitors were also compared amongst themselves to determine differences in their effects.
A human myeloma cell line MM.1S was grown using either ^12C (light) or ^13C (heavy) lysine containing culture medium. The “heavy” cells were treated with DMSO as the control, and the “light” cells were treated with a single HDAC inhibitor at 37° C. for 6 hours. The heavy and light cells were lysed, and the lysates were mixed in 1:1 ratio and digested with the protease trypsin. The acetylated lysine containing peptides (due to the action of the HDAC inhibitor) in the digested peptide pool were captured by a non-specific anti-acetylated lysine antibody cocktail (the antibodies identify both light and heavy acetylated peptides), and subjected to mass spectrometry analysis in order to identify thousands of individual peptides.
Thousands of peptides were identified in pairs (^12C and ^13C) due to their known mass differences. The amino acid sequence and quantitative ratio (Light/Heavy) of a given peptide in two differentially treated cell lysates were then determined and annotated with their possible protein (gene) sources.
As stated above, three HDAC inhibitors (Compound A, Compound B, and Tubastatin A) were used. Thus, the SILAC method was performed three times, with a different HDAC inhibitor compared to a control each time. Accordingly, there are three pairs of quantitative data in the table below, i.e., Compound A:DMSO, Compound B:DMSO, and Tubastatin A:DMSO. A cut-off of 1.30 fold of change (increase or decrease) was then used to determine “changed” or “+” in the table, and any peptides with a fold of change less than 1.3 fold were determined to be “unchanged” or “0” in the table. Those peptides that were not identified were marked as “NA” in the table. […]

`O=C(CCCCCCNC(=O)c1cnc(N(c2ccccc2)c2ccccc2)nc1)NO` [Compound A, 2-(diphenylamino)-N-(7-(hydroxyamino)-7-oxoheptyl)pyrimidine-5-carboxamide] was tested, and the “L/H ratio of acetylated peptide DWVLNEFK(ac)HGK (SEQ ID NO: 33)” value (DDX5 [388], log 2 scale, drug vs DMSO) was 0.00, the “L/H ratio of acetylated peptide FEK(ac)[…] (SEQ ID NO: 32)” value (DDX17 [132], log 2 scale, drug vs DMSO) was 0.00 and the “L/H ratio of acetylated peptide ELNK(ac)ILEGR (SEQ ID NO: 2)” value (DLAT [466], log 2 scale, drug vs DMSO) was 0.00. For the same compound, the “light to heavy ratio (L/H ratio) of acetylated peptide SQFLK(ac)YIEK (SEQ ID NO: 524)” value (DNA replication licensing factor MCM2 [534], gene MCM2, inhibitor:DMSO) was −0.46 log 2, the “light to heavy ratio (L/H ratio) of acetylated peptide TFEK(ac)SMMNLQTK (SEQ ID NO: 354)” value (DNA topoisomerase 1 [642], TOP1, drug:DMSO) was 0.00 log 2 and the “L/H ratio of acetylated peptide VVK(ac)HPIFER (SEQ ID NO: 35)” value (DNAJB11 [247], log 2 scale, drug vs DMSO) was 0.00. The “L/H ratio of acetylated peptide” value (DVTLQK(ac)QCVPFR (SEQ ID NO: 486), 60S ribosomal protein L17 [55], RPL17) was 0.71 log 2, the “light to heavy ratio (L/H ratio) of acetylated peptide LNLDK(ac)MMEQK (SEQ ID NO: 603)” value (Dihydrolipoyl dehydrogenase mitochondrial [122], gene DLD, inhibitor:DMSO) was 0.46 log 2 and the “light to heavy ratio (L/H ratio) of acetylated peptide DTYIENEK(ac)LISGK (SEQ ID NO: 352)” value (Dolichyl-diphosphooligosaccharide--protein glycosyltransferase subunit 1 precursor [626], RPN1, drug:DMSO) was 0.00 log 2. The “light to heavy ratio (L/H ratio) of acetylated peptide YNIEK(ac)DIAAHIK (SEQ ID NO: 553)” value (Dynein light chain 1 cytoplasmic [36], gene DYNLL1, inhibitor:DMSO) was 0.40 log 2, the “light to heavy ratio (L/H ratio) of acetylated peptide YNIEK(ac)DIAAYIK (SEQ ID NO: 331)” value (Dynein light chain 2 cytoplasmic [36], DYNLL2, drug:DMSO) was 0.00 log 2 and the “L/H ratio of acetylated peptide” value (EHLLK(ac)YEYQPFAGK (SEQ ID NO: 482), Isoform 1 of WD repeat-containing protein 1 [95], WDR1) was 0.47 log 2. For the same compound, the “L/H ratio of acetylated peptide TSK(ac)NK(ac)SSLSR (SEQ ID NO: 14)” value (EP300 [1558:1560], log 2 scale, drug vs DMSO) was 1.00, the “light to heavy ratio (L/H ratio) of acetylated peptide YLAEK(ac)YEWDVAEAR (SEQ ID NO: 332)” value (Elongation factor 2 [638], EEF2, drug:DMSO) was 0.00 log 2 and the “light to heavy ratio (L/H ratio) of acetylated peptide TFK(ac)GVVDVVMK (SEQ ID NO: 550)” value (Elongation factor G 2 mitochondrial precursor [265], gene GFM2, inhibitor:DMSO) was 0.39 log 2. The “light to heavy ratio (L/H ratio) of acetylated peptide KSDYIK(ac)LYVR (SEQ ID NO: 315)” value (Endoplasmin [410], HSP90B1, drug:DMSO) was 1.00 log 2, the “light to heavy ratio (L/H ratio) of acetylated peptide EK(ac)[…] (SEQ ID NO: 314)” value (Endoplasmin[ 142], HSP90B1, drug:DMSO) was 1.00 log 2 and the “light to heavy ratio (L/H ratio) of acetylated peptide EVEEDEYK(ac)AFYK (SEQ ID NO: 261)” value (Endoplasmin[ 356], HSP90B1, drug:DMSO) was 0.41 log 2. The “light to heavy ratio (L/H ratio) of acetylated peptide K(ac)EELTLEGIR (SEQ ID NO: 510)” value (Eukaryotic initiation factor 4A-I [238], gene EIF4A1, inhibitor:DMSO) was −0.60 log 2, the “light to heavy ratio (L/H ratio) of acetylated peptide LMCK(ac)PIFSK (SEQ ID NO: 335)” value (Eukaryotic translation initiation factor 2 subunit 3 [312], EIF2S3, drug:DMSO) was 0.00 log 2 and the “light to heavy ratio (L/H ratio) of acetylated peptide SHLAK(ac)EGLYQYK (SEQ ID NO: 533)” value (Eukaryotic translation initiation factor 3 subunit A [68], gene EIF3A, inhibitor:DMSO) was −0.41 log 2. The “L/H ratio of acetylated peptide” value (FGIAAK(ac)[…] (SEQ ID NO: 479), Isoform 2 of Voltage-dependent anion-selective channel protein 2 [224], VDAC2) was −0.40 log 2, the “light to heavy ratio (L/H ratio) of acetylated peptide, log 2 scale” value (FPHSAHQK(ac)YVR (SEQ ID NO: 253), Ribosomal protein L14 variant [71], RPL14) was −0.39 and the “L/H ratio of acetylated peptide” value (FVATGHGK(ac)YEK (SEQ ID NO: 487), Lymphocyte-specific protein 1 [327], LOC100133284, LSP1) was 0.75 log 2. For the same compound, the “light to heavy ratio (L/H ratio) of acetylated peptide AVDLIQK(ac)HK (SEQ ID NO: 546)” value (Flap endonuclease 1 [252], gene FEN1, inhibitor:DMSO) was 0.39 log 2, the “light to heavy ratio (L/H ratio), log 2 scale, acetylated peptide GGVVGIK(ac)VDK (SEQ ID NO: 774)” value (Fructose-bisphosphate aldolase A [108], gene ALDOA, drug:DMSO) was 1.00 and the “L/H ratio of acetylated peptide TCEESSFCK(ac)R (SEQ ID NO: 36)” value (GANAB [48], log 2 scale, drug vs DMSO) was 0.00. The “L/H ratio of acetylated peptide ASGLAAGK(ac)GVIVAK (SEQ ID NO: 37)” value (GART [156], log 2 scale, drug vs DMSO) was 0.00, the “L/H ratio of acetylated peptide LVK(ac)VWNLANCK (SEQ ID NO: 39)” value (GNB2L1 [175], log 2 scale, drug vs DMSO) was 0.00 and the “L/H ratio of acetylated peptide IIVDELK(ac)QEVISTSSK (SEQ ID NO: 38)” value (GNB2L1 [271], log 2 scale, drug vs DMSO) was 0.00. For the same compound, the “L/H ratio of acetylated peptide” value (GSK(ac)K(ac)AVTK (SEQ ID NO: 490), Histone H2B type 2-E [16:17], HIST2H2BE) was 1.00 log 2, the “L/H ratio of acetylated peptide (ac)AHYNFK(ac)K (SEQ ID NO: 40)” value (GTPBP4 [7], log 2 scale, drug vs DMSO) was 0.00 and the “L/H ratio of acetylated peptide” value (GVHPK(ac)FPEGGK (SEQ ID NO: 483), NADH-cytochrome b5 reductase 1 [124], CYB5R1) was 0.48 log 2. The “light to heavy ratio (L/H ratio) of acetylated peptide (ac)[…](ac)PGECLR (SEQ ID NO: 575)” value (Galectin-1 [13], gene LGALS1, inhibitor:DMSO) was 0.42 log 2, the “light to heavy ratio (L/H ratio) of acetylated peptide ISGASEK(ac)[…] (SEQ ID NO: 543)” value (Glutamate dehydrogenase 1 mitochondrial [503], gene GLUD1, inhibitor:DMSO) was 0.39 log 2 and the “light to heavy ratio (L/H ratio) of acetylated peptide […](ac)YDNSLK (SEQ ID NO: 620)” value (Glyceraldehyde-3-phosphate dehydrogenase [139], gene GAPDH, inhibitor:DMSO) was 0.48 log 2.
